The values below come from patent US6653309B1, “Inhibitors of IMPDH enzyme technical field of the invention” (Vertex Pharmaceuticals Incorporated, priority 1999, dated 2003).

For this test, the target named is IMPDH human type II (Homo sapiens, UniProt P12268). Description: IMPDH Activity Inhibition Assay. Particulars: spectrophotometric NADH formation at 340 nm, 37° C., tight-binding equation of Henderson. The format is biochemical. Here is the method:
IMP dehydrogenase activity was assayed following an adaptation of the method first reported by Magasanik. [B. Magasanik et al., J. Biod. Chem., 226, p. 339 (1957), the disclosure of which is herein incorporated by reference]. Enzyme activity was measured spectrophotometrically, by monitoring the increase in absorbance at 340 nm due to the formation of NADH (ε340 is 6220 M^−1 cm^−1). The reaction mixture contained 0.1 M Tris pH 8.0, 0.1 M KCl, 3 mM EDTA, 2 mM DTT, […] and enzyme (IMPDH human type II) at a concentration of 15 to 50 nM. This solution is incubated at 37° C. for 10 minutes. The reaction is started by adding NAD to a final concentration of […] and the initial rate is measured by following the linear increase in absorbance at 340 nm for 10 minutes. For reading in a standard spectrophotometer (path length 1 cm) the final volume in the cuvette is 1.0 ml. The assay has also been adapted to a 96 well microtiter plate format; in this case the concentrations of all the reagents remain the same and the final volume is decreased to 200 μl.
For the analysis of inhibitors, the compound in question is dissolved in DMSO to a final concentration of 20 mM and added to the initial assay mixture for preincubation with the enzyme at a final volume of 2-5% (v/v). The reaction is started by the addition of NAD, and the initial rates measured as above. Ki determinations are made by measuring the initial, velocities in the presence of varying amounts of inhibitor and fitting the data using the tight-binding equation of Henderson (Henderson, P. J. F. (1972) Biochem. J. 127, 321].
In the case of `COc1ccccc1NC(=O)c1cc2ccccc2cc1O` [Compound 100], the Ki is less than 10 µM.

As for `CCCC(=O)Oc1cc2ccccc2cc1C(=O)Nc1ccccc1OC` [Compound 101], the inhibition constant (Ki) lay in the range of 10 to 20 µM.

The compound `COc1cc(NC(=O)c2cccc(CNC(=O)O[C@H]3CCOC3)c2)ccc1-c1cnco1` [Compound 102] returned a Ki of less than 10 µM.

With `COc1ccccc1NC(=O)c1cc2cc(Br)ccc2cc1OC(C)=O` [Compound 104], the Ki lay in the range of 10 to 20 µM.

`COc1ccccc1N(C)C(=O)c1cc2ccccc2cc1O` [Compound 105] registered a Ki of 10 to 20 µM.

Turning to `C=CCN(C(=O)c1cc2ccccc2cc1O)c1ccccc1OC` [Compound 106], the Ki is 10 to 20 µM.

`COc1ccccc1N(Cc1ccccc1)C(=O)c1cc2ccccc2cc1O` [Compound 107] gave a Ki of 10 to 20 µM.

For the compound `COc1ccccc1NC(=O)c1ccccc1OC` [Compound 108], the Ki lay in the range of 10 to 20 µM.

`COc1cc(NC(=O)c2cccc(CCNC(=O)O[C@H]3CCOC3)c2)ccc1-c1cnco1` [Compound 109] had a Ki of less than 10 µM.

`COc1ccccc1NC(=O)c1ccc2ccccc2c1` [Compound 110] showed a Ki of 10 to 20 µM.

Consider `COc1ccccc1NC(=O)c1cc2ccccc2cc1OC(=O)c1ccccc1` [Compound 111], for which the Ki is less than 10 µM.

With `COc1ccccc1NC(=O)c1cc2ccccc2cc1OC(=O)C(C)(C)C` [Compound 112], the Ki was in the range of 10 to 20 µM.

`CCCC(=O)Oc1cc2ccccc2cc1C(=O)Nc1ccc(C#N)c(OC)c1` [Compound 113] gave a Ki of less than 10 µM.

For the compound `CCCC(=O)Oc1cc2ccccc2cc1C(=O)Nc1ccc(-c2cnco2)c(OC)c1` [Compound 114], the Ki is less than 10 µM.

Turning to `COc1ccccc1NCc1cc2cc(Br)ccc2cc1O` [Compound 115], the Ki is less than 10 µM.

Regarding `CCCC(=O)Oc1cc2ccccc2cc1C(=O)Nc1cccc(OC)c1` [Compound 116], the Ki was greater than 20 µM.

`CCCC(=O)Oc1cc2ccccc2cc1C(=O)Nc1ccc(OC)cc1` [Compound 117] came in with an inhibitory constant (Ki) greater than 20 µM.

Compound `CCCC(=O)Oc1cc2ccccc2cc1C(=O)Nc1ccc(C)cc1` [Compound 118] returned a Ki of 10 to 20 µM.

Compound `COc1cccc(NC(=O)c2cc3ccccc3cc2O)c1` [Compound 119] returned a Ki greater than 20 µM.

For the compound `COc1ccc(NC(=O)c2cc3ccccc3cc2O)cc1` [Compound 120], the Ki was 10 to 20 µM.

Regarding `Cc1ccc(NC(=O)c2cc3ccccc3cc2O)cc1` [Compound 121], the Ki lay in the range of 10 to 20 µM.

Compound `Cc1cccc(NC(=O)c2cc3ccccc3cc2O)c1` [Compound 122] gave a Ki of 10 to 20 µM.

Take `O=C(Nc1cccc(C(F)(F)F)c1)c1cc2ccccc2cc1O` [Compound 123]: the Ki was less than 10 µM.

Take `O=C(Nc1ccc(C(F)(F)F)cc1)c1cc2ccccc2cc1O` [Compound 124]: the Ki is less than 10 µM.

In turn, `COc1cc(NC(=O)c2cc3ccccc3cc2O)ccc1C#N` [Compound 125] registered a Ki of 10 to 20 µM.

`COc1cc(NC(=O)c2cc3ccccc3cc2O)ccc1-c1cnco1` [Compound 126] registered a Ki of less than 10 µM.

`CCC(=O)Oc1cc2ccc(Br)cc2cc1C(=O)Nc1ccccc1OC` [Compound 127] displayed a Ki of less than 10 µM.

The compound `O=C(Nc1ccccc1C(F)(F)F)c1cc2ccccc2cc1O` [Compound 128] yielded a Ki of 10 to 20 µM.

In turn, `O=C(Nc1ccccc1Br)c1cc2ccccc2cc1O` [Compound 129] displayed a Ki of 10 to 20 µM.

`O=C(Nc1cccc(Br)c1)c1cc2ccccc2cc1O` [Compound 130]: the inhibition constant (Ki) fell in the range of 10 to 20 µM.

Consider `O=C(Nc1ccc(Br)cc1)c1cc2ccccc2cc1O` [Compound 131], for which the Ki lay in the range of 10 to 20 µM.

In turn, `Cc1ccccc1NC(=O)c1cc2ccccc2cc1O` [Compound 132] came in with a Ki of 10 to 20 µM.

Consider `COc1ccccc1NC(=O)c1ccccc1` [Compound 133], for which the Ki was 10 to 20 µM.

Compound `COc1ccccc1NC(=O)c1ccc2c(c1)OCO2` [Compound 134] yielded a Ki of 10 to 20 µM.

`O=C(Nc1ccccc1OC(F)(F)F)c1cc2ccccc2cc1O` [Compound 135]: the inhibition constant Ki was 10 to 20 µM.
